# According to US20130101509A1, “IMAGING AND RADIOTHERAPY METHODS” (GENERAL ELECTRIC COMPANY, priority 2008, published 2013):
# Test system: ALDH
# Test: Cell based ALDH assay: competition against ALDEFLUOR in SK-BR-3 cells, FACS
# Settings: FACS at 488 nm
# Experimental: Briefly, the compound was dissolved in DMSO and competed against ALDEFLUOR™, a BODIPY-conjugated ALDH substrate, in a cell-based assay using SK-BR-3 cells. The BODIPY fluorescence in the cell samples were measured using FACS at 488 nm. The median fluorescence of each sample was measured and fitted to a sigmoidal dose-response curve for calculation of IC50 using Prism Graphpad.
# 6-(2-fluoroethyloxy)-2-naphthaldehyde was dissolved and diluted in DMSO prior to use.
# SK-BR-3 cells, a cell line reported to have a high expression of ALDH+ cells, was used for all experiments. The cells were cultured in RPMI media supplemented with 10% fetal bovine serum and 2 mM L-glutamine, in 37° C., 5% CO2. On the day of assay, cells were harvested by trypsination, centrifuged, and re-suspended in ALDEFLUOR™ assay buffer to a concentration of 1×10^6 cells.
# The compound was competed against ALDEFLUOR™, a BODIPY-conjugated ALDH substrate. […] Following incubation at 37° C., the fluorescence was measured in each sample by FACS at 488 nm. […]
# The median fluorescence of each sample was calculated, and the values were then normalized and fitted to a dose-response curve for calculation of IC50 using Prism Graphpad.
row,Structure (SMILES),Displacement of ALDEFLUOR (decrease in fluorescence with increasing compound concentration)
1,"O=Cc1ccc2cc(OCCF)ccc2c1 [Example 3A, 6-(2-fluoroethyloxy)-2-naphthaldehyde]",displaced ALDEFLUOR™

# Same assay, conditions: competition against ALDEFLUOR, BODIPY fluorescence by FACS at 488 nm, compound 0.005-50 μM
row,Structure (SMILES),IC50
1,"O=Cc1ccc2cc(OCCF)ccc2c1 [Example 3A, 6-(2-fluoroethyloxy)-2-naphthaldehyde]",330 nM

# Target: T1, Aldehyde Dehydrogenase (Yeast ALDH) (Saccharomyces cerevisiae, UniProt P46367)
# T1 sequence (P46367 25-519): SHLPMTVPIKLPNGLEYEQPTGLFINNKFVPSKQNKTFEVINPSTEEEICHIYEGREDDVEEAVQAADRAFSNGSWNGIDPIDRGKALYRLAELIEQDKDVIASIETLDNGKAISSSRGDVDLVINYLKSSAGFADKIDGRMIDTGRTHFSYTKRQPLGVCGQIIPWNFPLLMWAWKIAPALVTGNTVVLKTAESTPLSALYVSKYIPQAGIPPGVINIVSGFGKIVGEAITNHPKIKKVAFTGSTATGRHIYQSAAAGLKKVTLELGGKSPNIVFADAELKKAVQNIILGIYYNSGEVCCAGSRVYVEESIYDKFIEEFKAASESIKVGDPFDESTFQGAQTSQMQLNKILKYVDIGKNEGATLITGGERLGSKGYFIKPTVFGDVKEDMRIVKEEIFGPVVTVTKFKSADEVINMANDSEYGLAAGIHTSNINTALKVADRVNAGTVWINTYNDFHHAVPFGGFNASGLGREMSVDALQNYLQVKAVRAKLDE
# Test: ALDH assay by spectroscopic method (screening for ALDH activity)
# Format: biochemical
# Settings: substrate reagent 50 μM in 0.1M TrisHCl pH 8.0, change in absorbance or fluorescence as a function of time
# Source text: Aldehyde Dehydrogenase is an enzyme that acts on aldehydes as substrates and converts them to acid (products).
# Designing and Standardization of ALDH Assay: • following the conversion of NAD+ to NADH typically one does the ALDH assays.
# [drawing 72] • The formation of NADH is monitored by measuring the absorbance at 340 nm. However, before employing this method, the compounds were screened for their spectral properties, especially to avoid any interference in absorbance either from the substrate or the product.
# Such compounds were further screened for their fluorescence properties by recording their excitation/emission wavelengths.
# ALDH Assay by Spectroscopic Method: • The ALDH assay is designed to measure either the utilization of the substrate or formation of product by measuring at their unique wavelengths (Absorbance or Fluorescence).
# All the spectral studies for the compounds were carried out in 0.1M Tris HCl pH 8.0 buffer. CSCT Compounds were initially dissolved in Methanol (˜2.0 mg/mL). The compounds were further diluted in 0.1M Tris HCl pH 8.0 buffer (concentration ranging from ˜20 to 50 μg/mL). The Spectra was recorded using Spectramax M5.
# The ALDH activity can be followed either by monitoring the conversion of β-NAD^+ to β-NADH or by directly monitoring the product/substrate. The conversion of β-NAD^+ to β-NADH yields increasing in absorbance at 340 nm. If either the substrate/products have any spectral interference at this wavelength then unique absorbance/fluorescence wavelength of either product/substrate are used. The measurements were taken on Spectromax M5.
# • 1. Reagent 1: 1 M Tris HCl Buffer, pH 8.0 at 25° C. (Prepare 50 ml in deionized water using Trizma Base, Sigma Prod. No. T-1503. Adjust to pH 8.0 at 25° C. with 1 M HCl.) • 2. Reagent 2: 20 mM β-Nicotinamide Adenine Dinucleotide, Oxidized Form, Solution (β-NAD^+) (Prepare 1 ml in deionized water using β-Nicotinamide Adenine Dinucleotide, PREPARE FRESH). • 3. Reagent 3: 3 M Potassium Chloride Solution (KCl) (Prepare 1 ml in deionized water using Potassium Chloride). • 4. Reagent 4: 1 M 2-Mercaptoethanol Solution (2-ME) (Prepare 1 ml in deionized water using 2-Mercaptoethanol. PREPARE FRESH.) • 5. Reagent 5: 100 mM Tris HCl Buffer with 0.02% (w/v) Bovine Serum Albumin, pH 8.0 at 25° C. (for Enzyme Dilution). • 6. Reagent 6: Aldehyde Dehydrogenase Enzyme Solution (Yeast ALDH). Immediately before use, prepare a solution containing 0.5-1 unit/ml of Aldehyde Dehydrogenase in cold Reagent 5).
# Pipette (in milliliters) the following reagents into vial:
# In a 3.00 ml reaction mix, the final concentrations are 103 mM Tris HCl Buffer (Reagent 1), 0.67 mM β-nicotinamide adenine dinucleotide (Reagent 2), 100 mM potassium chloride (Reagent 3), 10 mM 2-mercaptoethanol (Reagent 4), 0.0007% (w/v) bovine serum albumin (Reagent 5) and 0.05-0.1 unit aldehyde dehydrogenase (Reagent 6).
row,Structure (SMILES),Comments (ALDH assay screening result)
1,O=Cc1ccc2ccccc2c1 [2-Naphthaldehyde],Active
2,COc1cccc(C=O)c1 [3-anisladehyde],Active
3,O=Cc1ccc(I)cc1 [4-Iodobenzaldehyde],Active
4,O=Cc1ccc(F)cc1 [4-fluorobenzaldehyde],Active
5,COc1ccc2cc(C=O)ccc2c1 [6-Methoxy-2-Naphthaldehyde],Active
6,"O=CCCNC(=O)c1ccc(F)cc1 [Example 2, (2-formylethyl)-4-fluorobenzamide]",Not active
7,"O=Cc1ccc2cc(OCCCF)ccc2c1 [Example 3, 6-(3-fluororpropyloxy)-2-naphthaldehyde]",Active
8,"O=Cc1ccc2cc(OCCF)ccc2c1 [Example 3A, 6-(2-fluoroethyloxy)-2-naphthaldehyde]",Active
